Assay results taken from US8334261B2, “Osteopenia animal model” (Oriental Yeast Co., Ltd., priority 2006, dated 2012).

Key:
[1] = test system: GST-RANKL-administered 7-week-old female C57BL/6 mice; assay: Comparison of a plurality of bisphosphonates in GST-RANKL mice; assay type: in vivo, mouse; conditions: for dose at which the effects were exhibited: s.c. from the day before GST-RANKL
Procedure: GST-RANKL was intraperitoneally administered 3 times at 1 mg/kg every 24 hours. The femur, tibia, and serum were collected from each mouse 1.5 hours after the 3rd GST-RANKL administration. Measurement of TRAP-5b, calcium (Ca), and alkaline phosphatase (ALP) in the serum was carried out. Each femur was subjected to bone density measurement with pQCT and image analysis with micro CT.

[2] = test system: GST-RANKL-administered 7-week-old female C57BL/6N mice; assay: Evaluation of an osteoporosis therapeutic agent (risedronate) with GST-RANKL-administered mice; assay type: in vivo, mouse
Procedure: GST-RANKL (426 nmol) was intraperitoneally administered 3 times to groups of 7-week-old female C57BL/6N mice (5 to 6 individuals each) every 24 hours. An osteoporosis therapeutic agent (risedronate) was subcutaneously administered at 0.01 mg/kg every 24 hours from 3 days before GST-RANKL administration. Administration of the agent was continued to the end of the experimentation every 24 hours. The serum, femur, and tibia were collected from each mouse 1.5 hours after the 3rd administration of GST-RANKL. Bone resorption parameters (calcium, CTx, and TRAP-5b) and osteogenesis parameters (osteocalcin and ALP) in the serum were measured. The femur bone density was determined with the use of pQCT and micro CT. Measurement values were compared with those for a control group by the Dunnett method for testing.

[3] = test system: GST-RANKL-administered 7-week-old female C57BL/6 mice; assay: Drug evaluation with bisphosphonate (risedronate) in GST-RANKL mice; assay type: in vivo, mouse
Procedure: Risedronate was separately administered via a subcutaneous route to groups of 7-week-old female C57BL/6 mice at doses of 3, 10, and 30 μg/kg every 24 hours from the day before GST-RANKL administration to the end of the experimentation. The femur and serum were collected from each mouse 1.5 hours after the 3rd administration of GST-RANKL. Measurement of TRAP-5b, calcium (Ca), and alkaline phosphatase (ALP) was carried out. Each femur was subjected to bone density measurement and image analysis with the use of pQCT.

[4] = test system: GST-RANKL-administered, ovariectomized 7-week-old female C57BL/6N mice; assay: Drug evaluation with a selective estrogen receptor modulator (raloxifene) in GST-RANKL/OVX mice; assay type: in vivo, mouse
Description: In addition, PBS (i.p.) and ultrapure water (p.o.) were used as control substances for comparison with GST-RANKL and raloxifene, respectively, upon administration.
The serum collected from each mouse was subjected to measurement of serum bone resorption markers (Ca and TRAP-5b) and an osteogenesis marker (ALP). Each femur was subjected to measurement of the bone density, the bone mineral content, and the cortical bone thickness with pQCT at points 0.6, 0.8, 1.0 mm from the distal growth plate on the proximal side. In addition, image analysis was carried out with micro CT.

[5] = test system: GST-RANKL-administered 7-week-old female C57BL/6N mice; assay: Evaluation of RANKL-signal-inhibiting compound (LFM-A13) in osteopenia mouse models; assay type: in vivo
Procedure: GST or GST-RANKL (20 μg) was administered 3 times to 7-week-old female C57BL/6N mice every 24 hours. LFM-A13 (20 mg/kg body weigh) or physiological saline was administered thereto 1 hour before GST-RANKL administration. Measurement of the serum Ca concentration and bone morphology measurement was carried out 1.5 hours after the 3rd GST-RANKL administration. In addition, 3D image analysis was carried out with micro CT.

[6] = test system: 7-week-old female C57BL/6N mice; assay: Production of osteopenia model mice with soluble RANKL; assay type: in vivo, mouse
Procedure: Soluble RANKL (produced by Peprotech) was intraperitoneally administered 3 times to groups of 7-week-old female C57BL/6N mice (10 individuals each) at doses of 57 and 426 nmol every 24 hours. The serum and femur were collected from each mouse 1.5 hours after the 3rd administration. Bone resorption markers and osteogenesis markers in the serum were measured. The bone density was measured with the use of pQCT at points 0.6, 0.8, and 1.0 mm from the distal growth plate on the proximal side of the femur.

[7] = combination of GST-RANKL and risedronate 0.01 mg/kg
[8] = raloxifene 1 or 10 mg/kg p.o. 14 days

NCCCC(O)(P(=O)(O)O)P(=O)(O)O [alendronate]
serum Ca concentration vs RANKL administration ([1]; 300 μg/kg s.c., p<0.05): significantly decreased | increase in the TRAP-5b concentration ([1]; 300 μg/kg, p<0.01): significantly suppressed | dose at which the effects were exhibited [1]: 0.3 mg/kg

O=P(O)(O)C(O)(Cc1cccnc1)P(=O)(O)O [risedronate]
serum CTx concentration decrease vs control group ([2]; combination of GST-RANKL 426 nmol and risedronate 0.01 mg/kg s.c.): approximately 30% | serum TRAP-5b concentration decrease vs control group ([2]; combination of GST-RANKL 426 nmol and risedronate 0.01 mg/kg s.c. every 24 hours): approximately 30% | femur bone density vs control [2, 7]: comparable to that for the control group | serum alkaline phosphatase concentration vs control [2, 7]: did not change | serum osteocalcin concentration vs control [2, 7]: did not change | serum Ca concentration vs RANKL administration ([1]; 1 μg/kg s.c., p<0.01): significantly decreased | increase in the TRAP-5b concentration ([1]; 1 μg/kg, p<0.05): significantly suppressed | increase in the TRAP-5b concentration ([1]; 10 μg/kg, p<0.01): significantly suppressed | serum Ca concentration vs RANKL administration ([1]; 100 μg/kg s.c., p<0.01): significantly decreased | bone density decrease suppressed to ([1]; 100 μg/kg, 0.6-mm point): 1% | increase in the TRAP-5b concentration ([1]; 100 μg/kg, p<0.01): significantly suppressed | dose at which the effects were exhibited [1]: 0.1 mg/kg | serum TRAP-5b decrease vs RANKL alone ([3]; risedronate 3 μg/kg s.c. every 24 hours): approximately 30% | bone density decrease suppressed to ([3]; risedronate 3 μg/kg, 0.6 mm): 12% | bone density decrease suppressed to ([3]; risedronate 3 μg/kg, 0.8 mm): 18% | bone density decrease suppressed to ([3]; risedronate 3 μg/kg, 1.0 mm): 24% | serum TRAP-5b decrease vs RANKL alone ([3]; risedronate 10 μg/kg s.c.): ~50% | bone density decrease suppressed to ([3]; risedronate 10 μg/kg, 0.6 mm): 13% | bone density decrease suppressed to ([3]; risedronate 10 μg/kg, 0.8 mm): 28% | bone density decrease suppressed to ([3]; risedronate 10 μg/kg, 1.0 mm): 30% | serum ALP concentration vs RANKL alone ([3]; risedronate 30 μg/kg): significantly decreased | serum TRAP-5b decrease vs RANKL alone ([3]; risedronate 30 μg/kg s.c.): ~70% | bone density decrease suppressed to ([3]; risedronate 30 μg/kg, 0.6 mm): 10% | bone density decrease suppressed to ([3]; risedronate 30 μg/kg, 0.8 mm): 18% | bone density decrease suppressed to ([3]; risedronate 30 μg/kg, 1.0 mm): 20%

CC(O)(P(=O)(O)O)P(=O)(O)O [etidronate]
dose at which the effects were exhibited [1]: 30 mg/kg

O=C(c1ccc(OCCN2CCCCC2)cc1)c1c(-c2ccc(O)cc2)sc2cc(O)ccc12 [raloxifene]
cancellous bone density (pQCT) ([4]; among the all groups): no significant differences | cortical bone mineral content increase in GST-RANKL+OVX group ([4]; raloxifene 1 mg/kg, 0.8 mm): 93% | cortical bone thickness increase in GST-RANKL+OVX group ([4]; raloxifene 1 mg/kg, 0.8 mm): 101% | cortical bone mineral content increase in GST-RANKL+OVX group ([4]; raloxifene 1 mg/kg, 1.0 mm): 136% | cortical bone thickness increase in GST-RANKL+OVX group ([4]; raloxifene 1 mg/kg, 1.0 mm): 137% | total bone density increase in GST-RANKL+OVX group ([4]; raloxifene 1 mg/kg, 1.0 mm): 10% | serum ALP concentration ([4]; raloxifene 1 mg/kg, p<0.05): significantly decreased | cortical bone mineral content increase in GST-RANKL+OVX group ([4]; raloxifene 10 mg/kg, 0.6 mm): 87% | cortical bone thickness increase in GST-RANKL+OVX group ([4]; raloxifene 10 mg/kg, 0.6 mm): 92% | total bone density increase in GST-RANKL+OVX group ([4]; raloxifene 10 mg/kg, 0.6 mm): 10% | cortical bone mineral content increase in GST-RANKL+OVX group ([4]; raloxifene 10 mg/kg, 0.8 mm): 118% | cortical bone thickness increase in GST-RANKL+OVX group ([4]; raloxifene 10 mg/kg, 0.8 mm): 123% | total bone density increase in GST-RANKL+OVX group ([4]; raloxifene 10 mg/kg, 0.8 mm): 11% | cortical bone mineral content increase in GST-RANKL+OVX group ([4]; raloxifene 10 mg/kg, 1.0 mm): 137% | cortical bone thickness increase in GST-RANKL+OVX group ([4]; raloxifene 10 mg/kg, 1.0 mm): 133% | total bone density increase in GST-RANKL+OVX group ([4]; raloxifene 10 mg/kg, 1.0 mm): 11% | serum ALP concentration ([4]; raloxifene 10 mg/kg, p<0.01): significantly decreased | serum Ca concentration [4, 8]: no significant changes | serum TRAP-5b concentration [4, 8]: no significant changes

C/C(O)=C(\C#N)C(=O)Nc1cc(Br)ccc1Br [LFM-A13]
bone mass decrease caused by GST-RANKL (micro CT) ([5]; LFM-A13 20 mg/kg 1 hour before GST-RANKL 20 μg): suppressed | decrease in the trabecular number (Tb.N) resulting from GST-RANKL ([5]; LFM-A13 20 mg/kg, p<0.01): significantly suppressed | decrease in unit bone mass (BV/TV) caused by GST-RANKL ([5]; LFM-A13 20 mg/kg, p<0.01): significantly suppressed | increase in the eroded surface area (ES/BS) resulting from GST-RANKL ([5]; LFM-A13 20 mg/kg, p<0.01): significantly suppressed | increase in the osteoclast number (N.Oc/B.Pm) resulting from GST-RANKL ([5]; LFM-A13 20 mg/kg, p<0.01): significantly suppressed | decrease in the trabecular width (Tb.Th) resulting from GST-RANKL ([5]; LFM-A13 20 mg/kg, p<0.05): significantly suppressed | increase in the serum Ca concentration resulting from GST-RANKL ([5]; LFM-A13 20 mg/kg, p<0.05): significantly suppressed

B1: Soluble RANKL: Soluble RANKL (produced by Peprotech) (protein, UniProt O14788 69-317, looked up)
extracellular domain: YFRAQMDPNRISEDGTHCIYRILRLHENADFQDTTLESQDTKLIPDSCRRIKQAFQGAVQKELQHIVGSQHIRAEKAMVDGSWLDLAKRSKLEAQPFAHLTINATDIPSGSHKVSLSSWYHDRGWAKISNMTFSNGKLIVNQDGFYYLYANICFRHHETSGDLATEYLQLMVYVTKTSIKIPSSHTLMKGGSTKYWSGNSEFHFYSINVGGFFKLRSGEEISIEVSNPSLLDPDQDATYFGAFKVRDID
modifications: extracellular domain
femur bone density decrease ([6]; 426 nmol): approximately 20% | serum CTx concentration, fold as high ([6]; 426 nmol): ~1.5 fold | serum alkaline phosphatase concentration ([6]; 426 nmol): did not vary | serum osteocalcin concentration ([6]; 426 nmol): did not vary | serum calcium concentration, fold as high ([6]; 426 nmol high dose i.p. 3 times): approximately 1.4 fold | serum TRAP-5b concentration, fold as high ([6]; 426 nmol, no significant difference): approximately 1.25 fold
